Measured values taken from patent US5389621A, “Method of enhancing the anticoagulant effects of aspirin using salicylamide” (University of Medicine and Dentistry of New Jersey, priority 1994, dated 1995).
Where two headings read alike, the source gives them in different places. Each block holds one compound with its values, some of them ahead of it.

Columns and labels:
vascular cyclooxygenase = experiment: 6-keto PG F1alpha production from thoracic aortic rings ex vivo; format: in vivo, male Sprague-Dawley rats; conditions: for Inhibition of PG I2 (6-keto PG F1alpha) / vascular cyclooxygenase: ASA 10 mg/kg or SAM 9 mg/kg, rat thoracic aortic rings ex vivo
Protocol: The method used was a modification of that used by Dejana et al. (1981). Male Sprague-Dawley rats were randomly treated with either ASA (10 mg/kg), SAM (9 mg/kg), ASA/SAM (10/9 mg/kg), or isotonic saline. The rats were fasted overnight before administration of the treatments. Half an hour following treatment, the rats were exsanguinated by heart puncture under ether anesthesia and the thoracic aorta was immediately isolated, cleaned of adventitia, and flushed in situ with 5 ml of isotonic saline. The vessel was then removed and 2 rings (each was nearly 7 mg wet weight corresponding to 0.5 cm length) were cut from the middle part. The rings were immediately incubated in 160 μl of Krebs-Hanseleit buffer solution adjusted to pH 7.4 and containing AA (final concentration 4.3 mM) in polyethylene tubes. The tubes were incubated at 37° C. in a shaking water bath for 10 minutes. The reaction was terminated by the addition of 40 μl of EDTA/ASA solution and the tubes were centrifuged at 1800× g for 15 minutes at 4° C. 100 μl of the supernatant were used for the measurement of 6-keto PG F1alpha content as an indicator of its unstable precursor, PG I2. A specific radioimmunoassay (Amersham International) (vide infra) was employed.
Radioimmunoassay Procedure for Measurement of Thromboxane B2 and 6-keto PG F1alpha
The procedure described below is for thromboxane A2. A similar procedure was used for 6-keto PG F1alpha measurement.
One way ANOVA followed by Scheffe multiple range test was employed for treatment comparisons. The accepted level of significance was p<0.05.

[1] = Tissue distribution of 14C radioactivity after 14C-aspirin; format: in vivo, male Sprague-Dawley rats; conditions: for Tissue with the highest 14C concentration: 14C-ASA alone or with SAM, low dose
Protocol: Male adult Sprague-Dawley rats (300-325 gm) obtained from Charles River Breeding Laboratory, N. Wilmington, Mass. were quarantined for one week. All animals were identified by ear punching. Food and water were provided ad libitum. The animals were maintained on rodent lab chow diet in a controlled environment with 50% humidity and 12 hour light/dark cycle.
Forty-eight rats were divided into two groups. The first group of rats was administered ASA, SAM or their combination in a dose approximately equal (w/w) to that in the commercially available combinations, e.g., BC® formula, when administered to humans, i.e., 10 and 3 mg/kg of ASA and SAM, respectively. The second group was administered double the dosage received by the first group.
Each group consisted of 24 rats and was further divided into 4 subgroups, 6 rats each, according to the following scheme:
The rats were fasted overnight. The drug(s) were prepared fresh, dissolved in 2.5 ml of deionized water and administered orally by gavage needle. The rats were allowed water ad libitum before and after the oral administration.
The different treatments were given according to the previous scheme and each rat received an amount of radioactivity equal to […] in the case of radioactive aspirin and 10 μCu in the case of radioactive salicylamide.
The rats were anesthetized by light diethyl ether inhalation. A blood sample of nearly 3 ml was collected by cardiac puncture 1.5 hours after oral administration. The blood was transferred to chilled polyethylene tubes containing 30 μl of 50% (w/w) potassium fluoride to prevent hydrolysis of ASA. A 300 μl aliquot was pipetted in a scintillation vial to study the distribution in whole blood. The rest of the collected blood was immediately centrifuged at 1800×g for 10 minutes at 4° C. and the plasma was decanted. 100 μl of the plasma were pipetted in a scintillation vial for measurement of the total radioactivity and the rest of the plasma was stored immediately at -70° C. for later study of the distribution of the metabolites.
300 μl of the pellet of red blood cells was pipetted in a scintillation vial to study the distribution in red blood cells. The rest of the red blood cells were washed twice by adding 2 ml of physiological saline and were resuspended after each addition.
After collecting the blood sample, the rats were sacrificed immediately by a diethyl ether overdose. The following tissues were collected: liver, lung, kidney, heart, spleen, perinephric fat, brain, upper small intestine, stomach, pancreas, bone (femur and tibia), testis, skin and skeletal muscle. A sample of bone marrow was also collected (approximately20 mg).
300 mg tissue samples were placed in scintillation vials and 300 μl of 70% perchloric acid and 600 μl of 30% hydrogen peroxide were added to each vial and also to the vials containing the washed red blood cells aliquots. The vials were incubated at 75° C. for 1 hour in a shaking water bath and were tightly capped to prevent any loss of radioactivity by evaporation.
The vials were left to cool to room temperature for 15 minutes before 10 ml Aquasol-2 scintillation fluid was added to each vial. The total radioactivity was counted in a Beckman model 7500 LS spectrophotometer.

cyclooxygenase = conditions: in vitro, cited from earlier work
[2] = 1.5 hr, 14C-ASA 10 mg/kg, alone or with SAM 3 mg/kg
[3] = 1.5 hr, 14C-ASA 20 mg/kg, alone or with SAM 6 mg/kg

Compound: CC(=O)Oc1ccccc1C(=O)O [ASA, acetylsalicylic acid]
- Inhibition of PG I2 (6-keto PG F1alpha) / vascular cyclooxygenase (vascular cyclooxygenase): inhibited PG I2

Compound: CC(=O)Oc1ccccc1[14C](=O)O [^14 C-ASA]
- 14C radioactivity in RBCs [1, 2]: 4.2 ± 1.2 μg/gm tissue
- 14C radioactivity in blood [1, 2]: 17.1 ± 3.1 μg/gm tissue
- 14C radioactivity in bone [1, 2]: 2.7 ± 0.08 μg/gm tissue
- 14C radioactivity in bone marrow [1, 2]: 0.24 ± 0.05 μg/50 mg of bone marrow
- 14C radioactivity in brain [1, 2]: 1.5 ± 0.1 μg/gm tissue
- 14C radioactivity in fat [1, 2]: 3.3 ± 0.1 μg/gm tissue
- 14C radioactivity in heart [1, 2]: 5.6 ± 0.5 μg/gm tissue
- 14C radioactivity in kidney [1, 2]: 15.1 ± 0.9 μg/gm tissue
- 14C radioactivity in liver [1, 2]: 7.9 ± 0.9 μg/gm tissue
- 14C radioactivity in lung [1, 2]: 7.3 ± 0.5 μg/gm tissue
- 14C radioactivity in muscle [1, 2]: 3.5 ± 0.2 μg/gm tissue
- 14C radioactivity in pancreas [1, 2]: 5.7 ± 0.4 μg/gm tissue
- 14C radioactivity in plasma [1, 2]: 35.5 ± 1.7 μg/gm tissue
- 14C radioactivity in skin [1, 2]: 8.9 ± 0.4 μg/gm tissue
- 14C radioactivity in spleen [1, 2]: 2.9 ± 0.6 μg/gm tissue
- 14C radioactivity in stomach [1, 2]: 18.9 ± 3.3 μg/gm tissue
- 14C radioactivity in testis [1, 2]: 5.1 ± 0.5 μg/gm tissue
- 14C radioactivity in upper small intestine [1, 2]: 5.8 ± 0.6 μg/gm tissue
- 14C radioactivity in washed RBCs [1, 2]: 1.5 ± 0.5 μg/gm tissue
- 14C radioactivity in RBCs [1, 3]: 8.8 ± 1.2 μgm/gm tissue
- 14C radioactivity in blood [1, 3]: 36.1 ± 3.5 μgm/gm tissue
- 14C radioactivity in bone [1, 3]: 7.1 ± 0.6 μgm/gm tissue
- 14C radioactivity in bone marrow [1, 3]: 0.79 ± 0.03 μgm/50 mg bone marrow
- 14C radioactivity in brain [1, 3]: 4.1 ± 0.07 μgm/gm tissue
- 14C radioactivity in fat [1, 3]: 4.5 ± 0.3 μgm/gm tissue
- 14C radioactivity in heart [1, 3]: 17.5 ± 0.5 μgm/gm tissue
- 14C radioactivity in kidney [1, 3]: 32.0 ± 3.2 μgm/gm tissue
- 14C radioactivity in liver [1, 3]: 19.7 ± 0.9 μgm/gm tissue
- 14C radioactivity in lung [1, 3]: 19.3 ± 0.7 μgm/gm tissue
- 14C radioactivity in muscle [1, 3]: 9.5 ± 0.4 μgm/gm tissue
- 14C radioactivity in pancreas [1, 3]: 12.6 ± 0.5 μgm/gm tissue
- 14C radioactivity in plasma [1, 3]: 65.1 ± 1.91 μgm/gm tissue
- 14C radioactivity in skin [1, 3]: 21.9 ± 0.6 μgm/gm tissue
- 14C radioactivity in spleen [1, 3]: 10.0 ± 0.9 μgm/gm tissue
- 14C radioactivity in stomach [1, 3]: 22.9 ± 4.6 μgm/gm tissue
- 14C radioactivity in testis [1, 3]: 14.1 ± 0.6 μgm/gm tissue
- 14C radioactivity in upper small intestine [1, 3]: 15.1 ± 1.0 μgm/gm tissue
- 14C radioactivity in washed RBCs [1, 3]: 3.8 ± 0.9 μgm/gm tissue
- Tissue with the highest 14C concentration ([1]; 1.5 hr): plasma attained the highest concentration

- Change of 14C distribution in plasma, skin, testis and brain ([1]; 14C-ASA 20 mg/kg with SAM 6 mg/kg vs 14C-ASA alone): significant increase
- Change of 14C radioactivity and 14C-SA in plasma, liver and lung ([1]; SAM with 14C-ASA): discernable and parallel increase
- Potentiation of ASA inhibitory effect on vascular cyclooxygenase (vascular cyclooxygenase; SAM with ASA, ex vivo): significant potentiation
Compound: NC(=O)c1ccccc1O [SAM, Salicylamide]
- Tissue with the highest 14C concentration ([1]; 1.5 hr): plasma attained the highest concentration
- Change of 14C activity in stomach (gastric mucosa) ([1]; 1.5 hr, 14C-ASA/SAM 10/3 mg/kg vs 14C-ASA 10 mg/kg): lower concentration of ^14 C radioactivity
- Inhibition of PG I2 (6-keto PG F1alpha) / vascular cyclooxygenase (vascular cyclooxygenase): partially, but still significantly, block vascular cyclooxygenase activity
- Effect on cyclooxygenase (cyclooxygenase): no effect in vitro on cyclooxygenase
- Effect on cyclooxygenase (cyclooxygenase; listed as salicylamide): does not have a demonstrable effect on the cyclooxygenase pathway in vitro
